Tests used:
[1] = biological target: T1, Recombinant full-length human IDO1 (Homo sapiens, UniProt P14902); test: IDO1 enzymatic assay (NFK quantified by LCMS); format: biochemical; conditions: 2 nM enzyme, 5 μM L-tryptophan, pH6.5, 30 minutes pre-incubation at RT; mean values when measured multiple times; read-out: hIDO activity (IC50 in nM)
T1 construct: Recombinant full-length human IDO1 with a N-terminal hexahistidine tag; hexahistidine (His6) (N); made in house; host or cells: E. coli
Outline: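 IC50 comes from four-parameter logistic fits of duplicate data, with NFK quantified by LCMS and normalized to L-Trp-(indole-d5). Compound (0.5 nM–10 μM) was preincubated 30 min at RT with 2 nM E. coli-expressed IDO1 before a 30 min reaction with 5 μM tryptophan in pH 6.5 buffer containing ascorbate and methylene blue.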

[2] = biological target: T2, Recombinant human TDO comprising amino acids 19-407 (Homo sapiens, UniProt P48775); test: TDO2 enzymatic assay (NFK quantified by LCMS); format: biochemical; conditions: 15 nM enzyme, 200 μM L-tryptophan, pH7, 30 minutes pre-incubation at RT; mean values when measured multiple times; read-out: hTDO activity (IC50 in nM)
T2 construct: Recombinant human TDO comprising amino acids 19-407 with a N-terminal hexahistidine tag; hexahistidine (His6) (N); made in house; host or cells: E. coli
Outline: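 NFK formed over 30 min at RT from 200 μM L-tryptophan was measured by LCMS, normalized to d5-tryptophan, after compound (0.5 nM–10 μM, duplicates, 0.6% DMSO) was preincubated 30 min with 15 nM recombinant His-tagged TDO 19-407 in phosphate buffer pH 7. IC50 from four-parameter logistic fit; repeats averaged.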

T2 sequence (P48775 19-406 limits assumed): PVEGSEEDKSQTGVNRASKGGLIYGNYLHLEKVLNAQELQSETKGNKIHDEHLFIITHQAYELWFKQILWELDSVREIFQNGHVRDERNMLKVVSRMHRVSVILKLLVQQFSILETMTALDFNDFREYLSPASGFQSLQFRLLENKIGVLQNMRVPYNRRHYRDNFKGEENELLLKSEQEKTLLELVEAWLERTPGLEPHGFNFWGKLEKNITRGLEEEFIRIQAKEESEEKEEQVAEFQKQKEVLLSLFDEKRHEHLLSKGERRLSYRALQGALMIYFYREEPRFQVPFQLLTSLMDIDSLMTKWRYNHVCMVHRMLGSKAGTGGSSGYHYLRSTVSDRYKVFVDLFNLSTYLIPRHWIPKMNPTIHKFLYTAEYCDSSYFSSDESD
T1 sequence (P14902 whole entry): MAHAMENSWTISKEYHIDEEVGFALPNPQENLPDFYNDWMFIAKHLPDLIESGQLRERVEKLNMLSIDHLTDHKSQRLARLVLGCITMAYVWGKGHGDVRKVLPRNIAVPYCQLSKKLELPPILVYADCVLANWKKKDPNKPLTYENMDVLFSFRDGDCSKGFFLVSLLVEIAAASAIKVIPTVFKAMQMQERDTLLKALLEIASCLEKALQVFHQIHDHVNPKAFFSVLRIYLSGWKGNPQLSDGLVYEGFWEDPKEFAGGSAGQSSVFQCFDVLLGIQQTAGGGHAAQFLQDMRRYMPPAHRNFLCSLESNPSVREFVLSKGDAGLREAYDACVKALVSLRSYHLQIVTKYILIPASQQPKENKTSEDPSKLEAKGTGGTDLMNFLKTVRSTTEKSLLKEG

Compound	IC50 [1]	IC50 [2]
COc1c(F)cc(-n2cc(C(O)c3c(C4CC4)sc4cncn34)nn2)cc1Cl (racemic) [Example 288, rac-[1-(3-Chloro-5-fluoro-4-methoxy-phenyl)-1H-[1,2,3]triazol-4-yl]-(2-cyclopropyl-imidazo[5,1-b]thiazol-3-yl)-methanol]	15.1 nM	> 10200 nM
COc1ccc(-n2cc(C(O)c3c(C4CC4)sc4cncn34)nn2)cc1Cl (racemic) [Example 289, rac-[1-(3-Chloro-4-methoxy-phenyl)-1H-[1,2,3]triazol-4-yl]-(2-cyclopropyl-imidazo[5,1-b]thiazol-3-yl)-methanol]	7.56 nM	> 10200 nM
COc1ccc(-n2cc(C(O)c3c(C4CC4)sc4cncn34)nn2)cc1Br (racemic) [Example 290, rac-[1-(3-Bromo-4-methoxy-phenyl)-1H-[1,2,3]triazol-4-yl]-(2-cyclopropyl-imidazo[5,1-b]thiazol-3-yl)-methanol]	15.3 nM	> 10200 nM
COc1ccc(-n2cc(C(O)c3c(C4CC4)sc4cncn34)nn2)cc1I (racemic) [Example 291, rac-(2-Cyclopropyl-imidazo[5,1-b]thiazol-3-yl)-[1-(3-iodo-4-methoxy-phenyl)-1H-[1,2,3]triazol-4-yl]-methanol]	41.1 nM	> 10200 nM
COc1ccc(-n2cc(C(O)c3c(C4CC4)sc4cncn34)nn2)c(F)c1Cl (racemic) [Example 292, rac-[1-(3-Chloro-2-fluoro-4-methoxy-phenyl)-1H-[1,2,3]triazol-4-yl]-(2-cyclopropyl-imidazo[5,1-b]thiazol-3-yl)-methanol]	28.9 nM	> 10200 nM
C=C(C)c1sc2cncn2c1C(O)c1cn(-c2ccc(OCCC(C)(C)O)c(Cl)c2)nn1 (racemic) [Example 293, rac-4-(2-Chloro-4-{4-[hydroxy-(2-isopropenyl-imidazo[5,1-b]thiazol-3-yl)-methyl]-[1,2,3]triazol-1-yl}-phenoxy)-2-methyl-butan-2-ol]	17.6 nM	> 10200 nM
COC(=O)c1cccc(Cn2cc(C(O)c3c(C4CC4)sc4cncn34)nn2)c1 (racemic) [Example 294, rac-3-{4-[(2-Cyclopropyl-imidazo[5,1-b]thiazol-3-yl)-hydroxy-methyl]-[1,2,3]triazol-1-ylmethyl}-benzoic acid methyl ester]	35.8 nM	> 10200 nM
COc1ccc(-n2nnc(C(O)c3c(C4CC4)sc4cncn34)c2C)cc1Cl (racemic) [Example 295, rac-[1-(3-Chloro-4-methoxy-phenyl)-5-methyl-1H-[1,2,3]triazol-4-yl]-(2-cyclopropyl-imidazo[5,1-b]thiazol-3-yl)-methanol]	6.63 nM	8840 nM
CCOc1ccc(-n2nnc(C(O)c3c(C4CC4)sc4cncn34)c2C)cc1Cl (racemic) [Example 296, rac-[1-(3-Chloro-4-ethoxy-phenyl)-5-methyl-1H-[1,2,3]triazol-4-yl]-(2-cyclopropyl-imidazo[5,1-b]thiazol-3-yl)-methanol]	14.1 nM	> 10200 nM
COC(=O)c1ccc(Cn2cc(C(O)c3c(C4CC4)sc4cncn34)nn2)cc1 (racemic) [Example 297, rac-4-{4-[(2-Cyclopropyl-imidazo[5,1-b]thiazol-3-yl)-hydroxy-methyl]-[1,2,3]triazol-1-ylmethyl}-benzoic acid methyl ester]	16 nM	> 10200 nM
Oc1cccc(Cn2cc(C(O)c3c(C4CC4)sc4cncn34)nn2)c1 (racemic) [Example 298, rac-3-{4-[(2-Cyclopropyl-imidazo[5,1-b]thiazol-3-yl)-hydroxy-methyl]-[1,2,3]triazol-1-ylmethyl}-phenol]	23.3 nM	> 10200 nM
C=C(C)c1sc2cncn2c1C(O)c1cn(-c2ccc(OCC3(F)COC3)c(Cl)c2)nn1 (racemic) [Example 299, rac-{1-[3-Chloro-4-(3-fluoro-oxetan-3-ylmethoxy)-phenyl]-1H-[1,2,3]triazol-4-yl}-(2-isopropenyl-imidazo[5,1-b]thiazol-3-yl)-methanol]	34.8 nM	> 10200 nM
COc1cc(F)c(-n2cc(C(O)c3c(C4CC4)sc4cncn34)nn2)cc1Cl (racemic) [Example 300, rac-[1-(5-Chloro-2-fluoro-4-methoxy-phenyl)-1H-[1,2,3]triazol-4-yl]-(2-cyclopropyl-imidazo[5,1-b]thiazol-3-yl)-methanol]	6.66 nM	> 10200 nM
C=C(C)c1sc2cncn2c1C(O)c1cn(-c2ccc(OCCCO)c(Cl)c2)nn1 (racemic) [Example 301, rac-3-(2-Chloro-4-{4-[hydroxy-(2-isopropenyl-imidazo[5,1-b]thiazol-3-yl)-methyl]-[1,2,3]triazol-1-yl}-phenoxy)-propan-1-ol]	25.1 nM	> 10200 nM
CCc1sc2cncn2c1C(O)c1cn(-c2ccc(OCCC(C)(C)O)c(Cl)c2)nn1 (racemic) [Example 302, rac-4-(2-Chloro-4-{4-[(2-ethyl-imidazo[5,1-b]thiazol-3-yl)-hydroxy-methyl]-[1,2,3]triazol-1-yl}-phenoxy)-2-methyl-butan-2-ol]	6.88 nM	> 10200 nM
CC(C)(O)CCOc1ccc(-n2cc(C(O)c3c(C4(C)CC4)sc4cncn34)nn2)cc1Cl (racemic) [Example 303, rac-4-[2-Chloro-4-(4-{hydroxy-[2-(1-methyl-cyclopropyl)-imidazo[5,1-b]thiazol-3-yl]-methyl}-[1,2,3]triazol-1-yl)-phenoxy]-2-methyl-butan-2-ol]	23.6 nM	> 10200 nM
Oc1ccc(Cn2cc(C(O)c3c(C4CC4)sc4cncn34)nn2)cc1 (racemic) [Example 304, rac-4-{4-[(2-Cyclopropyl-imidazo[5,1-b]thiazol-3-yl)-hydroxy-methyl]-[1,2,3]triazol-1-ylmethyl}-phenol]	52.2 nM	> 10200 nM
Oc1ccccc1Cn1cc(C(O)c2c(C3CC3)sc3cncn23)nn1 (racemic) [Example 305, rac-2-{4-[(2-Cyclopropyl-imidazo[5,1-b]thiazol-3-yl)-hydroxy-methyl]-[1,2,3]triazol-1-ylmethyl}-phenol]	71.3 nM	> 10200 nM
COc1ccc(-n2cc(C(O)c3c(C4CC4)sc4cncn34)nn2)c(C)c1 (racemic) [Example 306, rac-(2-Cyclopropyl-imidazo[5,1-b]thiazol-3-yl)-[1-(4-methoxy-2-methyl-phenyl)-1H-[1,2,3]triazol-4-yl]-methanol]	17.9 nM	> 10200 nM
CC(C)(O)CCOc1ccc(-n2cc(C(O)c3c(C(C)(F)F)sc4cncn34)nn2)cc1Cl (racemic) [Example 307, rac-4-[2-Chloro-4-(4-{[2-(1,1-difluoro-ethyl)-imidazo[5,1-b]thiazol-3-yl]-hydroxy-methyl}-[1,2,3]triazol-1-yl)-phenoxy]-2-methyl-butan-2-ol]	13.9 nM	> 10200 nM
OCc1ccc(-n2cc(C(O)c3c(C4CC4)sc4cncn34)nn2)cc1 (racemic) [Example 310, rac-(2-Cyclopropyl-imidazo[5,1-b]thiazol-3-yl)-[1-(4-hydroxymethyl-phenyl)-1H-[1,2,3]triazol-4-yl]-methanol]	50.1 nM	> 10200 nM
COc1cc(C)c(-n2cc(C(O)c3c(C4CC4)sc4cncn34)nn2)c(C)c1 (racemic) [Example 311, rac-(2-Cyclopropyl-imidazo[5,1-b]thiazol-3-yl)-[1-(4-methoxy-2,6-dimethyl-phenyl)-1H-[1,2,3]triazol-4-yl]-methanol]	137 nM	> 10200 nM
OC(c1cn(-c2ccc(OCCOCC(F)(F)F)cc2)nn1)c1c(C2CC2)sc2cncn12 (racemic) [Example 312, rac-(2-Cyclopropyl-imidazo[5,1-b]thiazol-3-yl)-(1-{4-[2-(2,2,2-trifluoro-ethoxy)-ethoxy]-phenyl}-1H-[1,2,3]triazol-4-yl)-methanol]	29.4 nM	> 10200 nM
CC1(c2sc3cncn3c2C(O)c2cn(-c3ccc(OCCCO)c(Cl)c3)nn2)CC1 (racemic) [Example 313, rac-3-[2-Chloro-4-(4-{hydroxy-[2-(1-methyl-cyclopropyl)-imidazo[5,1-b]thiazol-3-yl]-methyl}-[1,2,3]triazol-1-yl)-phenoxy]-propan-1-ol]	13.7 nM	> 10200 nM
CC(F)(F)c1sc2cncn2c1C(O)c1cn(-c2ccc(OCCCO)c(Cl)c2)nn1 (racemic) [Example 314, rac-3-[2-Chloro-4-(4-{[2-(1,1-difluoro-ethyl)-imidazo[5,1-b]thiazol-3-yl]-hydroxy-methyl}-[1,2,3]triazol-1-yl)-phenoxy]-propan-1-ol]	10.2 nM	> 10200 nM
CC1(c2sc3cncn3c2C(O)c2cn(-c3ccc(OCC4(F)COC4)c(Cl)c3)nn2)CC1 (racemic) [Example 315, rac-{1-[3-Chloro-4-(3-fluoro-oxetan-3-ylmethoxy)-phenyl]-1H-[1,2,3]triazol-4-yl}-[2-(1-methyl-cyclopropyl)-imidazo[5,1-b]thiazol-3-yl]-methanol]	19.5 nM	> 10200 nM

— patent US20200405696A1, “INHIBITORS OF INDOLEAMINE 2,3-DIOXYGENASE AND/OR TRYPTOPHAN 2,3-DIOXYGENASE” (IDORSIA PHARMACEUTICALS LTD, priority 2018, published 2020)
